SMILES strings stand for the structures.

What is called AC50 is the midpoint of the concentration-response curve, whichever way the signal moves. Low values mean activity at low concentration, high ones activity only at high concentration.

In the assay the test system is miR-21. Briefly: high throughput screen for compounds that modulate miR-21. Format: cell-based. The conditions noted are these: Homo sapiens; Tables 4-12. An excerpt:
This example describes a high throughput screening assay to identify small organic molecules that perturb the miRNA process. These active small molecules can be used as novel chemical tools to better understand miRNA functions and the molecular mechanisms of miRNA biogenesis. Moreover, miRNA inhibitors can be potentially developed into new therapeutics, including anticancer and antiviral agents. The high throughput assay is composed of a two-stage screening protocol, including of a primary screen to identify potential lead compounds from small molecule collections, and a secondary screen to evaluate and characterize the primary actives and to obtain a detailed structure-activity relationship (SAR).
Primary miR-21 Assay. The primary miR-21 FLuc reporter assay is carried out with HeLa cells expressing the Luc-miR-21 reporter using a 48-hour incubation time. Active compounds that increase the luciferase response are identified based upon inhibition of miR-21.
SAR. The concentration-response data for the entire high throughput screen is plotted and modeled by a four parameter logistic fit and SAR analysis is performed according to conventional approaches (Iglese, et al. (2006) Proc. Natl. Acad. Sci. USA 130:11473-8). In brief, Class 1.1 and 1.2 are full curves containing upper and lower asymptotes with efficacy ≧80% and <80%, respectively. […]

As for `COc1ccc2c(c1)CC(C)C/C2=N\NC(=O)c1ccco1` (centres unmarked), the activity was half-maximal at 16.5 µM (AC50).

As for `C/C(=N\NC(=O)c1cccs1)c1ccncc1`, the concentration at half-maximal activity (AC50) amounted to 7.36 µM.

The values are drawn from US20100196357A1, “Microrna modulators and method for identifying and using the same” (priority 2008, published 2010).
